In US10495630B2, “Methods for the determination of compounds or compositions for the treatment of lipofuscin related diseases and compounds or compositions” (KATAIRO GMBH, priority 2014, dated 2019):
Like-named read-outs stand apart in the source and are kept apart here. Values belong to the molecule of their own block, whether it stands above or below them.

How the values were obtained:
[1] = tested on: Abca4 (−/−) mice; experiment: A2E concentration in eyes of Abca4 (−/−) mice after intravitreal injection, HPLCMSMS; type: in vivo; details: for response vs control in vivo at 40000 µg/mL / response vs control in vivo at 20000 µg/mL: Mus musculus, 168 h, read-out: % of A2E relative to age matched untreated
Source text: […] […] The left eye was not treated and maintained as a control. Untreated eyes of age-matched mice lacking the Abca4 transporter were an additional control.
The concentration in each treated eye was then expressed as a percentage of the average concentration in all untreated eyes in the mice of the same age.
The left eye was not treated and maintained as a control. Untreated eyes of age-matched mice lacking the Abca4 transporter were an additional control.
The left eye was not treated and maintained as a control. Untreated eyes of age-matched mice lacking the Abca4 transporter were an additional control. […] Tryptophan is capable of absorbing and re-radiating light energy, as is riboflavin.
Water solutions were diluted 1:3 with acetonitrile and then sealed in vials for injection. 6 μL of the water acetonitrile solutions were injected onto a 2×50 mm Phenyl derived HPLC column (3 μm) and eluted with a gradient from 20% acetonitrile to 100% acetonitrile over 4 minutes at a flow rate of 500 μL/minute.

[2] = tested on: human retinal pigment epithelium (RPE) cells; experiment: Degradation of lipofuscin in human RPE cells (micrographs after one week); type: cell-based; details: one week incubation
Protocol: To explore the role of the reactive chemical species the human retinal pigment epithelium (RPE) cells were treated with the super oxide anion donor (SAD) soraprazan ((7R,8R,9R)-2,3-Dimethyl-8-hydroxy-7-ethoxy-9-phenyl-7,8,9,10-tetrahydro-imidazo-[1,2-h][1,7]-naphthyridin)—a member of the THPE family—either alone or in combination with a known radical oxygen scavenger, cardioxane.
After growing the hRPE-cells to confluence, the test compounds were added to seven cell cultures and the cells were incubated at 37° C. and 5% CO2. The SAD was added to the cell cultures in a concentration of 50 μg/ml either alone or in combination with cardioxane in a concentration of 10 μM, 50 μM or 100 μM. Additionally, three cell cultures were incubated only with cardioxane in a concentration of 10 μM, 50 μM or 100 μM. As control, one cell culture was grown without test compounds.
After one week of incubation micrographs of the differently incubated RPE cells were taken as shown in FIG. 2A to H. In the original images, lipofuscin in cells is visible as a yellow-gold-orange fluorescent structure, before a blue background. In the grey scale reproduction in FIG. 2 the yellow-gold-orange structure appear light grey (yellow) or dark grey (gold-orange) before a grey background. Areas of degradation of lipofuscin in the hRPE cells appears as bright blue to whitish structures which appear white in the in the grey scale reproduction and are circled in FIG. 2A.
The bright blue structures are only observed in the experimental set up with SAD alone (FIG. 2A).

[3] = tested on: melanin A2E particles; experiment: Assay for binding to A2E melanin particles; set-up: species or system S. officinalis; details: FIG. 3A; 37° C., 4 h
Protocol: To study the binding of A2E to melanin, a suspension of 2 mg/ml natural melanin (S. officinalis) is prepared in PBS, pH 7.4. The melanin suspension is brought to 37° C. and sonicated for 15 min to form a uniform suspension. The melanin suspension (0.75 ml) is measured in aliquots into glass test tubes (12×75 mm) under continuous shaking to avoid sedimentation. The solution of A2E (0.75 ml) is added to the above-mentioned melanin aliquots, and the tubes will be incubated in a shaker incubator at 37° C. and 300 rpm for 4 h.
Controls are prepared by incubating A2E in the absence of melanin in incubation medium and by incubating melanin without A2E. Compounds are added to melanin suspension from stock solutions. After incubation, the suspensions are centrifuged at 13,000 rpm for 15 min at room temperature to remove the melanin granules. The supernatant is collected, diluted with acetonitrile and analyzed by an LC-MS/MS method to determine the concentration of […] in the supernatant. The kinetic parameters of binding study, i.e., maximal binding capacity (rmax) and the binding affinity (k) are determined for A2E according to the previously reported method (Cheruvu et al., 2008).
A high percentage of soraprazan and demethoxysoraprazan—about 46% and about 53%, respectively—are found bound to the melanin A2E particles.

[4] = chelators or metal interactors, intravitreal 2 μl of 40 mg/ml or concentration as indicated, one week after injection
[5] = redox active small molecules and chelator, intravitreal 2 μl of 20 mg/ml, 16 hours after injection
[6] = tetracycline antibiotics, intravitreal 2 μl of 20 mg/ml, one week after injection
[7] = dyes and porphyrins, intravitreal 2 μl of 20 mg/ml, one week after injection
[8] = amino acids or metabolites, intravitreal 2 μl of 40 mg/ml, one week after injection
[9] = quinolones, intravitreal 2 μl of 20 mg/ml, one week after injection
[10] = permeability agents, intravitreal 2 μl of 40 mg/ml or concentration as indicated in the table, one week after injection
[11] = redox active and chelating protein, intravitreal 2 μl of 20 mg/ml, one week after injection

Molecule: c1cnc2c(c1)ccc1cccnc12 [1,10-phenanthroline]
response vs control in vivo at 40000 µg/mL [1, 4]: 91%
Concentration A2E (μM) in the treated eye [1, 4]: 20 µM

Molecule: C[C@@H]1CC[C@H]2[C@@H](C)C(=O)O[C@@H]3O[C@@]4(C)CC[C@@H]1[C@]32OO4 [Artemesinin]
% of A2E relative to age matched untreated [1, 5]: 75%
Concentration A2E (μM) in the treated eye [1, 5]: 38 µM

Molecule: O=C(N[C@H](CO)[C@H](O)c1ccc([N+](=O)[O-])cc1)C(Cl)Cl [Chloramphenicol]
response vs control in vivo at 20000 µg/mL [1, 6]: 70%
Concentration A2E (μM) in the treated eye [1, 6]: 24 µM

Molecule: CN(C)c1ccc(C(=C2C=CC(=[N+](C)C)C=C2)c2ccc(N(C)C)cc2)cc1 [Crystal violet]
response vs control in vivo at 20000 µg/mL [1, 7]: 71%
Concentration A2E (μM) in the treated eye [1, 7]: 23 µM

Molecule: N[C@@H](CS)C(=O)O [Cysteine]
response vs control in vivo at 40000 µg/mL [1, 8]: 59%
Concentration A2E (μM) in the treated eye [1, 8]: 12 µM
% of A2E relative to age matched untreated [1, 4]: 59%
Concentration A2E (μM) in the treated eye [1, 4]: 12 µM

Molecule: C[C@H]1c2cccc(O)c2C(=O)C2=C(O)[C@]3(O)C(=O)C(C(N)=O)=C(O)[C@@H](N(C)C)[C@@H]3[C@@H](O)[C@@H]21 [Doxycycline]
response vs control in vivo at 20000 µg/mL [1, 6]: 81%
Concentration A2E (μM) in the treated eye [1, 6]: 28 µM

Molecule: Cc1cc2nc3c(=O)[nH]c(=O)nc-3n(C[C@H](O)[C@H](O)[C@H](O)COP(=O)(O)OP(=O)(O)OC[C@H]3O[C@@H](n4cnc5c(N)ncnc54)[C@H](O)[C@@H]3O)c2cc1C [FAD]
% of A2E relative to age matched untreated [1, 7]: 99%
Concentration A2E (μM) in the treated eye [1, 7]: 23 µM

Molecule: CN1CCN(c2c(F)cc3c(=O)c(C(=O)O)cn(CCF)c3c2F)CC1 [Fleroxacin]
response vs control in vivo at 20000 µg/mL [1, 9]: 74%
Concentration A2E (μM) in the treated eye [1, 9]: 24 µM

Molecule: O=C1OC2(c3ccc(O)cc3Oc3cc(O)ccc32)c2ccccc21 [Fluoroscein]
response vs control in vivo at 20000 µg/mL [1, 7]: 85%
Concentration A2E (μM) in the treated eye [1, 7]: 20 µM

Molecule: N[C@@H](CCC(=O)N[C@@H](CS)C(=O)NCC(=O)O)C(=O)O [Glutathione]
response vs control in vivo at 40000 µg/mL [1, 8]: 89%
Concentration A2E (μM) in the treated eye [1, 8]: 35 µM

Molecule: O=C1/C(=C2\Nc3ccc(S(=O)(=O)[O-])cc3C2=O)Nc2ccc(S(=O)(=O)[O-])cc21.[Na+].[Na+] [Indigocarmine]
% of A2E relative to age matched untreated [1, 7]: 98%
Concentration A2E (μM) in the treated eye [1, 7]: 22 µM

Molecule: CC1(C)C(/C=C/C=C/C=C/C=C2\N(CCCCS(=O)(=O)O)c3ccc4ccccc4c3C2(C)C)=[N+](CCCCS(=O)(=O)[O-])c2ccc3ccccc3c21 [Indocyanine green]
response vs control in vivo at 20000 µg/mL [1, 7]: 66%
Concentration A2E (μM) in the treated eye [1, 7]: 20 µM

Molecule: CN(C)c1ccc(O)c2c1C[C@H]1C[C@H]3[C@H](N(C)C)C(O)=C(C(N)=O)C(=O)[C@@]3(O)C(O)=C1C2=O [Minocycline]
response vs control in vivo at 20000 µg/mL [1, 6]: 100%
Concentration A2E (μM) in the treated eye [1, 6]: 33 µM

Molecule: CCn1cc(C(=O)O)c(=O)c2cc(F)c(N3CCNCC3)cc21 [Norfloxacin]
response vs control in vivo at 20000 µg/mL [1, 9]: 106%
Concentration A2E (μM) in the treated eye [1, 9]: 36 µM

Molecule: c1ccc2c(c1)Nc1ccccc1S2 [Phenothiazine]
response vs control in vivo at 20000 µg/mL [1]: 85%
Concentration A2E (μM) in the treated eye [1, 7]: 27 µM

Molecule: c1ccc2c(c1)-c1nc-2nc2[nH]c(nc3nc(nc4[nH]c(n1)c1ccccc41)-c1ccccc1-3)c1ccccc21 [Phthalocyanine]
% of A2E relative to age matched untreated [1, 7]: 142%
Concentration A2E (μM) in the treated eye [1, 7]: 31 µM

Molecule: C=C[C@H]1C[N@@]2CC[C@H]1C[C@H]2[C@H](O)c1ccnc2ccc(OC)cc12 [Quinine]
response vs control in vivo at 20000 µg/mL [1, 7]: 81%
Concentration A2E (μM) in the treated eye [1, 7]: 17 µM

Molecule: Cc1cc2nc3c(=O)[nH]c(=O)nc-3n(C[C@H](O)[C@H](O)[C@H](O)CO)c2cc1C [Riboflavin]
response vs control in vivo at 40000 µg/mL [1, 8]: 91%
Concentration A2E (μM) in the treated eye [1, 8]: 19 µM

Molecule: O=C([O-])c1c(Cl)c(Cl)c(Cl)c(Cl)c1-c1c2cc(I)c(=O)c(I)c-2oc2c(I)c([O-])c(I)cc12.[Na+].[Na+] [Rose bengal]
% of A2E relative to age matched untreated [1, 7]: 85%
Concentration A2E (μM) in the treated eye [1, 7]: 16 µM

Molecule: C[C@@H]1CN(c2c(F)c(N)c3c(=O)c(C(=O)O)cn(C4CC4)c3c2F)C[C@H](C)N1 [Sparfloxacin]
response vs control in vivo at 20000 µg/mL [1, 9]: 99%
Concentration A2E (μM) in the treated eye [1, 9]: 36 µM

Molecule: N[C@@H](Cc1c[nH]c2ccccc12)C(=O)O [Tryptophan]
response vs control in vivo at 40000 µg/mL [1, 8]: 66%
Concentration A2E (μM) in the treated eye [1, 8]: 13 µM

Molecule: C[C@@H](CN1CC(=O)NC(=O)C1)N1CC(=O)NC(=O)C1 [cardioxane]
Effect on the lipofuscin degradation seen with SAD ([2]; cardioxane 10, 50 or 100 μM added to SAD 50 μg/ml): abolishes the degradation of lipofuscin
Degradation / removal of lipofuscin in hRPE cells ([2]; test compound alone (SAD 50 μg/ml; cardioxane 10, 50 or 100 μM)): do not show any degradation of lipofuscin

Molecule: Cyclodextrin
% of A2E relative to age matched untreated [1, 10]: 83%
Concentration A2E (μM) in the treated eye [1, 10]: 20 µM

Molecule: Cytochrome C: redox active electron carrier protein used as a model peroxidase
% of A2E relative to age matched untreated [1, 11]: 81%
Concentration A2E (μM) in the treated eye [1, 11]: 18 µM

Molecule: R/S-demethoxysoraprazan
Proportion of compound bound to the melanin A2E particles after incubation [3]: bind to the A2E melanin particles although to a lower percentage

Molecule: Transferrin (apo): protein capable of binding iron with high affinity
% of A2E relative to age matched untreated [1, 11]: 82%
Concentration A2E (μM) in the treated eye [1, 11]: 15 µM

Proportion of compound bound to the melanin A2E particles after incubation [3]: about 53%
Molecule: demethoxysoraprazan
